The record followed here is patent US10711000B2 (Fronthera U.S. Pharmaceuticals LLC, priority 2018, dated 2020).

Data set [1] is described as follows: Pharmacokinetics after a single oral dose in SD rats. The class given is in vivo. The following applies: Sprague-Dawley, rat, plasma, single oral dose in 0.5% methylcellulose; for half-life: read-out: T½ (converted). An excerpt: (§1) The pharmacokinetics and pharmacodynamics of test compounds after a single oral dose were investigated in SD rats, Beagle dog and Cynomolgus monkey. SD Rats (200-250 g) were purchased from Beijing Vital River Laboratory Animal Technology Co., Ltd. Male Beagle Dog, 6-9 kg, were purchased from Beijing Mashall. Male Cynomolgus monkeys, 3-5 kg, were purchased from Suzhou Xishan Zhongke Drugs Research and Development Co., Ltd. Following arrival, the animals were acclimated for 7 days in individual cages maintained at ambient temperature, 34 to 68% relative humidity, and 12-h light/dark cycles. Just prior to dose administration the rats were fasted overnight with free access to water. Animals were given 10 mL/kg of formulated compound in 0.5% methylcellulose (MC) by oral gavage, and the animals were fed four hours after dosing. The animals were manually restrained at the designated time points (pre-dose, 0.5, 1, 3, 6, 9, 12, and 24 h post-dose) to collect blood. Approximately 120 μL of blood was collected via orbital sinus into K2EDTA tubes. The blood samples were centrifuged at 5000 rpm for 10 min at 4° C. to obtain plasma samples.
(§2) To determine the compound concentration in the plasma samples, a 10× calibration standard of compound were prepared by serial dilution in DMSO: 20000, 10000, 5000, 2000, 1000, 500, 200, 100, 50, 20, and 10 ng/mL. 3 μL of calibration standard solution was added into 27.0 μL of blank plasma in 1.5-mL microcentrifuge tubes to generate 1× calibration standards. The 30.0 μL of standards or study plasma was mixed with 200 μL of acetonitrile (containing 5 ng/mL verapamil for internal control) in a 1.5-mL microcentrifuge tube. After vertexing for 1 minute and centrifuging at 10000 rpm for 10 min, 180 μL of supernatant was transferred into a 96-well plate and the compound concentration in the plasma was quantitated using LC/MS/MS together with standards. Briefly, 1 μL of the solutions were injected for LC-MS/MS analysis using an Agilent Zorbax C18 column (50×2.1 mm, 3.5 μm) with mobile phase A [5 mM NH4Ac (0.1% FA)] and phase B [Methanol (0.1% FA)]. Mass spectrometer parameters optimization for compound was performed by infusing standard diluted at 1 μg/mL in water/methanol (1/1, v/v) directly in the ionization source at a flow of 10 μL/min. Quantitative data were acquired in multiple reaction monitoring (MRM) positive APCI mode.

For a further data set, the target named is T1, Autotaxin (Rattus norvegicus, UniProt Q64610).
T1 construct: from tissue; host or cells: SD rats in vivo; plasma sampled after a single oral dose
The data set can be described thus: Pharmacodynamics: LPA 18:2 inhibition in plasma of SD rats after oral dose. The following applies: single oral dose, LPA18:2 inhibition vs plasma concentration of compound, read-out: In vivo rat IC50 (LPA 18:2) (converted).
From the text: as §1
Autotaxin is a secreted phosphodiesterase that converts lysophosphatidylcholine (LPC) into lysophosphatidic acid (LPA), and LPA 18:2 formation was used to evaluate the efficacy of autotaxin inhibitors. Therefore, the LPA 18:2 formation in response to drug administration was analyzed in each time point to assess the pharmacodynamics of test compounds. To determine the LPA18:2 concentration in study plasma, a 10× calibration standard of LPA 18:2 were prepared by serial dilution in butyl alcohol: 20000, 10000, 5000, 2000, 1000, 500, 200, 100, 50, 20, and 10 ng/mL. 3 μL of calibration standard solution was added into 27.0 μL of blank plasma in 1.5-mL microcentrifuge tubes to generate 1× calibration standards. The 30.0 μL of standards or study plasma was added into 1.5-mL microcentrifuge tubes. 200 μL of butyl alcohol (containing 25.0 ng/mL LPA17:0 for internal control) was added into each 1.5-mL microcentrifuge tube containing study plasma or calibration standards. After vortexing for 1 minute and centrifuging at 10000 rpm for 10 min, 180 μL of supernatant was transferred into a 96-well plate and the LPA18:2 concentration in the plasma was quantitated using LC/MS/MS together with standards. Briefly, 8 μL of the solutions were injected for LC-MS/MS analysis using an ACQUITY UPLC BEH C18 column (2.1×50 mm, 1.7 μm) with mobile phase A [20 mM NH4OAC in water (0.1% FA)] and phase B [5 mM NH4OAC in water/0.2% FA in ACN=5:95]. Mass spectrometer parameters optimization for LPA18:2 were performed by infusing standard diluted at 1 μg/mL in butyl Alcohol directly in the ionization source, at a flow of 10 μL/min. Deprotonated molecular ion at m/z 433.2 ([M−H]−) for LPA18:2, and abundant product ion at m/z 152.8 for LPA18:2 were obtained. Quantitative data were acquired in multiple reaction monitoring (MRM) negative electrospray ionization mode
The percentage of LPA18:2 inhibition was plotted against the corresponding concentration of compound and the IC50 was calculated through non-linear regression fitting.

Data set [2] can be described thus: Pharmacokinetics in cynomolgus monkeys. The class given is in vivo. The following applies: male, cynomolgus monkey, plasma, po, P.O. (1 mg/kg).
From the text: as §1, §2

Data set [3] in a line: Metabolic stability in liver microsomes. The class given is in vitro ADME. As to conditions: compound 1 μM; for metabolic stability (halftime in minutes), Dog: Beagle dog liver microsomes; for metabolic stability (halftime in minutes), Mouse: CD-1 mouse liver microsomes; for metabolic stability (halftime in minutes), Monkey: Cynomolgus monkey liver microsomes; for metabolic stability (halftime in minutes), Rat: SD rat liver microsomes. The method, then:
The metabolic stability was examined in human, rat, mouse, dog and cynomolgus monkey liver microsomes. Compound (1 μM) was mixed with diluted liver microsomes from each of the 5 species and a small aliquot was taken at 0, 5, 10, 20, 30 and 60 minutes for HPLC MS/MS analysis. Intrinsic clearance and half-life were calculated.
(In general: Liver microsomes are a subcellular fraction often used to study metabolism.)

The nature of data set [4]: Metabolic stability in human hepatocytes. The class given is in vitro ADME. The following applies: cryopreserved human hepatocytes 0.5 million/mL, compound 1 μM. The protocol: The metabolic stability was examined in cryopreserved human hepatocytes. Compound (1 μM) was mixed with human hepatocytes at 0.5 million/mL, and a small aliquot was taken at 0, 15, 30, 60 and 90 minutes for LC/MS/MS analysis. Intrinsic clearance and half-time were calculated.

Data set [5] is described as follows: Pharmacokinetics in cynomolgus monkeys. Format: in vivo. The following applies: male, cynomolgus monkey, plasma, iv, I.V. (1 mg/kg).

For orientation: AUC means the area under the concentration-time curve, a measure of exposure. Usually Cmax stands for the maximum level reached in the sampled fluid or tissue. By IC50 is commonly meant the concentration that inhibits the measured activity by half. The bioavailability is the share of a dose that reaches the circulation, judged against a reference dose that is usually intravenous. The clearance is the rate of elimination divided by the concentration. For `CCn1nc2ncc(N3CC4(CN(C(=O)C5CCOCC5)C4)C3)cc2c1N(C)c1nc(-c2ccc(F)cc2)c(C#N)s1` [Compound 118, 2-((2-ethyl-5-(6-(tetrahydro-2H-pyran-4-carbonyl)-2,6-diazaspiro[3.3]heptan-2-yl)-2H-pyrazolo[3,4-b]pyridin-3-yl)(methyl)amino)-4-(4-fluorophenyl)thiazole-5-carbonitrile], in data set [1], the area under the curve (AUC) came to 2620 ± 1920 ng·h/mL, the Cmax was 477 ± 250 ng/mL and the half-life is 3.85 ± 1.3 h. The IC50 at Autotaxin is 12.5 nM. In data set [2], this compound showed an AUC of 153 ± 10 ng·h/mL, a Cmax of 28 ± 3 ng/mL, a bioavailability of 2.9 ± 0.19% and a half-life of 2.63 ± 0.85 h. In data set [3], the “metabolic stability (halftime in minutes), Dog” value (“metabolic stability … Dog” below) was greater than 145 min; the “metabolic stability (halftime in minutes), Mouse” value (“metabolic stability … Mouse” for short) was 58.5 min; the “metabolic stability (halftime in minutes), Monkey” value (“metabolic stability … Monkey” below) worked out at 21.3 min; the “metabolic stability (halftime in minutes), Rat” value (“metabolic stability … Rat” below) was greater than 145 min. For the same compound, the “metabolic stability (halftime in minutes), Human” value (“metabolic stability … Human” for short) in data set [3] is 75.4 min. For the same compound, the “metabolic stability … Human” value in data set [4] is greater than 216.8 min. In data set [5], the AUC is 2640 ± 473 ng·h/mL, the C0 was 993 ± 8.6 ng/mL, the clearance was 6.06 ± 1.2 mL/min/kg and the half-life is 6.59 ± 1.5 h.

On to `CCc1nn2cc(F)c(N3CCN(CC(=O)N4CC(O)C4)CC3)cc2c1N(C)c1nc(-c2ccc(F)cc2)c(C#N)s1` [Example 101, 2-[[2-ethyl-6-fluoro-5-[4-[2-(3-hydroxyazetidin-1-yl)-2-oxo-ethyl]piperazin-1-yl]pyrazolo[1,5-a]pyridin-3-yl]-methyl-amino]-4-(4-fluorophenyl)thiazole-5-carbonitrile], for which, in data set [1], the AUC was determined as 2050 ± 884 ng·h/mL, the Cmax worked out at 268 ± 76 ng/mL and the half-life is 3.29 ± 0.25 h. At Autotaxin, the IC50 was 8.64 nM. For the same compound, in data set [2], the AUC was determined as 1380 ± 904 ng·h/mL, the Cmax came out at 239 ± 119 ng/mL, the bioavailability came out at 35.6 ± 22% and the half-life is 2.49 ± 0.54 h. In data set [3], the “metabolic stability … Dog” value worked out at 71.9 min; the “metabolic stability … Mouse” value turned out to be 14.0 min; the “metabolic stability … Monkey” value was 9.8 min; the “metabolic stability … Rat” value was determined as 96.6 min. The “metabolic stability … Human” value in data set [3] came out at 24.5 min. In addition, the “metabolic stability … Human” value in data set [4] is greater than 216.8 min. Besides, in data set [5], the area under the curve (AUC) was 1990 ± 92 ng·h/mL, the C0 was determined as 1220 ± 166 ng/mL, the clearance was 8.21 ± 0.38 mL/min/kg and the half-life is 1.82 ± 0.1 h.

Consider `CCc1nn2cc(F)c(N3CC4(CN(C(=O)[C@H]5CCOC5)C4)C3)cc2c1N(C)c1nc(-c2ccc(F)cc2)c(C#N)s1` [Example 102, 2-[[2-ethyl-6-fluoro-5-[2-[(3S)-tetrahydrofuran-3-carbonyl]-2,6-diazaspiro[3.3]heptan-6-yl]pyrazolo[1,5-a]pyridin-3-yl]-methyl-amino]-4-(4-fluorophenyl)thiazole-5-carbonitrile], for which, in data set [1], the AUC was determined as 7520 ± 498 ng·h/mL, the Cmax was determined as 732 ± 95 ng/mL and the half-life is 5.53 ± 0.2 h. In addition, the IC50 on Autotaxin was 8.85 nM. In data set [3], the “metabolic stability … Dog” value worked out at 69.8 min; the “metabolic stability … Mouse” value was 17.9 min; the “metabolic stability … Monkey” value was 6.4 min; the “metabolic stability … Rat” value is 67.3 min. Further, in data set [3], the “metabolic stability … Human” value was 13.4 min. Also, in data set [4], the “metabolic stability … Human” value was 76.6 min.

Consider `CCc1nc2c(C)cc(N3CCN(CC(=O)N4CC(O)C4)CC3)cn2c1N(C)c1nc(-c2ccc(F)cc2)c(C#N)s1` [GLPG1690], for which, in data set [1], the AUC worked out at 1260 ± 209 ng·h/mL, the peak concentration (Cmax) was 889 ± 173 ng/mL and the half-life is 3.15 ± 1.8 h. For the same compound, the IC50 on Autotaxin was 48.3 nM. Moreover, in data set [2], the AUC was 244 ± 118 ng·h/mL, the concentration peaked (Cmax) at 72.6 ± 38 ng/mL, the bioavailability amounted to 4.51 ± 2.1% and the half-life is 1.82 ± 0.63 h. Further, in data set [3], the “metabolic stability … Dog” value was determined as 32.1 min; the “metabolic stability … Mouse” value was 10.3 min; the “metabolic stability … Monkey” value was determined as 4.8 min; the “metabolic stability … Rat” value stood at 9.2 min. Moreover, the “metabolic stability … Human” value in data set [3] was 10.8 min. Moreover, the “metabolic stability … Human” value in data set [4] stood at 117.9 min. In data set [5], this compound gave an AUC of 2770 ± 246 ng·h/mL, a C0 of 4210 ± 1150 ng/mL, a clearance of 6.02 ± 0.51 mL/min/kg and a half-life of 1.41 ± 0.19 h.
